Source: US10377742B2, “AMPK-activating heterocyclic compounds and methods for using the same” (Rigel Pharmaceuticals, Inc., priority 2010, dated 2019)

biological target: AMPK; test: AMPK activation, enzyme-linked immunosorbent assay; assay type: biochemical
Protocol: Compounds were assayed for their ability to activate AMPK using an enzyme-linked immunosorbent assay. Reagents and procedures for measuring AMPK activation are well known and kits for AMPK activation assays are commercially available.

`COc1ccc(C(=O)C2CCN(C(=O)c3ccc(C(=O)N[C@@H]4CCN(Cc5ccc(C#N)cc5)C[C@@H]4F)cn3)CC2)cc1` (relative stereo) [Compound 454, N-((cis)-1-(4-cyanobenzyl)-3-fluoropiperidin-4-yl)-6-(4-(4-methoxybenzoyl)piperidine-1-carbonyl)nicotinamide] and `COc1ccc(C(=O)C2CCN(C(=O)c3ccc(C(=O)N[C@@H]4CCN(Cc5ccc(C#N)c(F)c5)C[C@H]4F)cn3)CC2)cc1` (relative stereo) [Compound 354, N-((trans)-1-(4-cyano-3-fluorobenzyl)-3-fluoropiperidin-4-yl)-6-(4-(4-methoxybenzoyl)piperidine-1-carbonyl)nicotinamide] cannot be ordered by EC50: < 0.5 µM for the first, < 0.5 µM for the second.

`N#Cc1ccc(O[C@H]2CC[C@@H](NC(=O)c3ccc(C(=O)N4CCC(C(=O)c5ccc(N6CCCC6)cc5)CC4)nc3)CC2)cc1` [Compound 442, N-((cis)-4-(4-cyanophenoxy)cyclohexyl)-6-(4-(4-(pyrrolidin-1-yl)benzoyl)piperidine-1-carbonyl)nicotinamide] and `CC(=O)c1ccc(OC2CCN(C(=O)c3ccc(C(=O)NC4CCC(Oc5ccc(C#N)cc5)CC4)cn3)CC2)cc1` (stereo not shown) [Compound 402, 6-(4-(4-acetylphenoxy)piperidine-1-carbonyl)-N-(4-(4-cyanophenoxy)cyclohexyl)nicotinamide] cannot be ordered by EC50: < 0.5 µM for the first, < 0.5 µM for the second.

`N#Cc1ccc(OC2CCN(C(=O)c3ccc(C(=O)N[C@H]4CC[C@@H](Oc5ccc(F)cc5)CC4)nc3)CC2)cc1` [Compound 303, 5-(4-(4-cyanophenoxy)piperidine-1-carbonyl)-N-((cis)-4-(4-fluorophenoxy)cyclohexyl)picolinamide] and `N#Cc1ccc(OC2CCN(C(=O)c3ccc(C(=O)N[C@H]4CC[C@@H](Oc5ccc(F)cc5)CC4)cn3)CC2)cc1` [Compound 324, 6-(4-(4-cyanophenoxy)piperidine-1-carbonyl)-N-((cis)-4-(4-fluorophenoxy)cyclohexyl)nicotinamide] cannot be ordered by EC50: < 0.5 µM for the first, < 0.5 µM for the second.

`COc1ccc(C(=O)C2CCN(C(=O)c3ccc(C(=O)N[C@H]4CC[C@@H](Oc5ccc(F)cc5)CC4)nc3)CC2)cc1` [Compound 311, N-((cis)-4-(4-fluorophenoxy)cyclohexyl)-5-(4-(4-methoxybenzoyl)piperidine-1-carbonyl)picolinamide] and `COc1ccc(C(=O)C2CCN(C(=O)c3ccc(C(=O)N[C@H]4CC[C@@H](Oc5ccc(F)cc5)CC4)cn3)CC2)cc1` [Compound 316, N-((cis)-4-(4-fluorophenoxy)cyclohexyl)-6-(4-(4-methoxybenzoyl)piperidine-1-carbonyl)nicotinamide] cannot be ordered by EC50: < 0.5 µM for the first, < 0.5 µM for the second.

`N#Cc1ccc(O[C@H]2CC[C@@H](NC(=O)c3ccc(C(=O)N4CCC(Oc5cccc(NC(=O)C6CC6)c5)CC4)nc3)CC2)cc1` [Compound 434, N-((cis)-4-(4-cyanophenoxy)cyclohexyl)-6-(4-(3-(cyclopropanecarboxamido)phenoxy)piperidine-1-carbonyl)nicotinamide] and `N#Cc1ccc(OC2CCN(C(=O)c3ccc(C(=O)N[C@H]4CC[C@@H](Oc5ccc(C#N)cc5)CC4)cn3)CC2)cc1` [Compound 321, N-((cis)-4-(4-cyanophenoxy)cyclohexyl)-6-(4-(4-cyanophenoxy)piperidine-1-carbonyl)nicotinamide] cannot be ordered by EC50: < 0.5 µM for the first, < 0.5 µM for the second.

`N#Cc1ccc(CN2CCC(NC(=O)c3ccc(C(=O)N4CCC(Oc5ccc(C#N)cc5)CC4)nn3)CC2)cc1` [Compound 388, N-(1-(4-cyanobenzyl)piperidin-4-yl)-6-(4-(4-cyanophenoxy)piperidine-1-carbonyl)pyridazine-3-carboxamide] and `N#Cc1ccc(O[C@H]2CC[C@@H](NC(=O)c3ccc(C(=O)N4CCN(Cc5ccc(F)cc5)CC4)nc3)CC2)cc1` [Compound 332, N-((cis)-4-(4-cyanophenoxy)cyclohexyl)-6-(4-(4-fluorobenzyl)piperazine-1-carbonyl)nicotinamide] cannot be ordered by EC50: < 0.5 µM for the first, < 0.5 µM for the second.

`N#Cc1ccc(CN2CCc3ccc(NC(=O)c4ccc(C(=O)N5CCN(Cc6ccc(F)cc6)CC5)cn4)cc3C2)cc1` [Compound 132, N-(2-(4-cyanobenzyl)-1,2,3,4-tetrahydroisoquinolin-7-yl)-5-(4-(4-fluorobenzyl)piperazine-1-carbonyl)picolinamide] and `N#Cc1ccc(CN2CCC(NC(=O)c3ccc(C(=O)N4CCC(Cc5ccccc5)CC4)cn3)CC2)cc1` [Compound 124, 5-(4-benzylpiperidine-1-carbonyl)-N-(1-(4-cyanobenzyl)piperidin-4-yl)picolinamide] cannot be ordered by EC50: < 0.5 µM for the first, < 0.5 µM for the second.

First: CS(=O)(=O)c1ccc(N2CCC(NC(=O)c3ccc(C(=O)N4CCN(Cc5ccc(F)cc5)CC4)nc3)CC2)cc1 [Compound 421, 6-(4-(4-fluorobenzyl)piperazine-1-carbonyl)-N-(1-(4-(methylsulfonyl)phenyl)piperidin-4-yl)nicotinamide]
Second: N#Cc1ccc(CN2CC[C@@H](NC(=O)c3ccc(C(=O)N4CCC(Oc5ccc(S(=O)(=O)C(F)(F)F)cc5)CC4)nc3)C(F)C2)cc1 (stereo in doubt) [Compound 451, N-((3S,4R)-1-(4-cyanobenzyl)-3-fluoropiperidin-4-yl)-6-(4-(4-(trifluoromethylsulfonyl)phenoxy)piperidine-1-carbonyl)nicotinamide]
The EC50 of the first is higher: 1 to 5 µM for the first, < 0.5 µM for the second. The second is the more potent here.

`COc1ccc(C(=O)C2CCN(C(=O)c3ccc(C(=O)N[C@@H]4CCN(Cc5ccc(OC(C)C)cc5)C[C@H]4F)cn3)CC2)cc1` (relative stereo) [Compound 353, N-((trans)-3-fluoro-1-(4-isopropoxybenzyl)piperidin-4-yl)-6-(4-(4-methoxybenzoyl)piperidine-1-carbonyl)nicotinamide] and `COc1ccc(C(=O)C2CCN(C(=O)c3ccc(C(=O)N[C@@H]4CCN(Cc5ccc(OC(F)(F)F)cc5)C[C@H]4F)cn3)CC2)cc1` (relative stereo) [Compound 350, N-((trans)-3-fluoro-1-(4-(trifluoromethoxy)benzyl)piperidin-4-yl)-6-(4-(4-methoxybenzoyl)piperidine-1-carbonyl)nicotinamide] cannot be ordered by EC50: < 0.5 µM for the first, < 0.5 µM for the second.

First: N#Cc1ccc(CN2CCC(NC(=O)c3ccc(Nc4ccc(Cc5ccccc5)cc4)cn3)CC2)cc1 [Compound 108, 5-(4-benzylphenylamino)-N-(1-(4-cyanobenzyl)piperidin-4-yl)picolinamide]
Second: O=C(N[C@H]1CC[C@@H](Oc2ccc(F)cc2)CC1)c1ccc(C(=O)N2CCC(Oc3ccc(F)cc3)CC2)cn1 [Compound 312, N-((cis)-4-(4-fluorophenoxy)cyclohexyl)-5-(4-(4-fluorophenoxy)piperidine-1-carbonyl)picolinamide]
The EC50 of the first is higher: 0.5 to 1 µM for the first, < 0.5 µM for the second. The second is the more potent here.

First: COc1ccc(C(=O)C2CCN(C(=O)c3ccc(C(=O)N[C@@H]4CCN(Cc5csc(C)n5)C[C@@H]4F)cn3)CC2)cc1 [Compound 427, N-((3S,4R)-3-fluoro-1-((2-methylthiazol-4-yl)methyl)piperidin-4-yl)-6-(4-(4-methoxybenzoyl)piperidine-1-carbonyl)nicotinamide]
Second: COc1ccc(C(=O)C2CCN(C(=O)c3ccc(C(=O)N[C@@H]4CCN(Cc5cc(C)on5)C[C@@H]4F)cn3)CC2)cc1 [Compound 426, N-((3S,4R)-3-fluoro-1-((5-methylisoxazol-3-yl)methyl)piperidin-4-yl)-6-(4-(4-methoxybenzoyl)piperidine-1-carbonyl)nicotinamide]
The EC50 of the first is higher: 1 to 5 µM for the first, < 0.5 µM for the second. The second is the more potent here.

`COc1ccc(C(=O)C2CCN(C(=O)c3ccc(C(=O)N[C@H]4CC[C@@H](Oc5cc(F)cc(F)c5)CC4)nc3)CC2)cc1` [Compound 300, N-((cis)-4-(3,5-difluorophenoxy)cyclohexyl)-5-(4-(4-methoxybenzoyl)piperidine-1-carbonyl)picolinamide] and `O=C(N[C@H]1CC[C@@H](Oc2ccc(F)cc2)CC1)c1ccc(C(=O)N2CCC(C(=O)c3ccc(F)cc3)CC2)cn1` [Compound 304, 5-(4-(4-fluorobenzoyl)piperidine-1-carbonyl)-N-((cis)-4-(4-fluorophenoxy)cyclohexyl)picolinamide] cannot be ordered by EC50: < 0.5 µM for the first, < 0.5 µM for the second.

With `N#Cc1ccc(O[C@H]2CC[C@@H](NC(=O)c3ccc(C(=O)N4CCC(Oc5ccc(C(F)(F)F)cc5)CC4)cn3)CC2)cc1F` [Compound 199, N-((cis)-4-(4-cyano-3-fluorophenoxy)cyclohexyl)-5-(4-(4-(trifluoromethyl)phenoxy)piperidine-1-carbonyl)picolinamide] the EC50 was < 0.5 µM.
